According to PubChem BioAssay AID248 (DTP/NCI, 2004):
“And” between values parts separate entries of the source, which are not always exact repeats. Equal entries are not always repeated. Inconclusive results and toxic doses are left out. Cut-off read from the data, not from the text of the source: active = T/C of 150% or more; inactive = T/C below 125%.

Test system: L1210 leukemia ip in BDF1 mice, survival T/C
Test: NCI In Vivo Anticancer Drug Screen. Data for tumor model L1210 Leukemia (intraperitoneal) in B6D2F1 (BDF1) mice
Settings: endpoint: mean survival time, higher = longer survival
Outline: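 Value reflects the ratio of survival in compound-treated mice to survival in vehicle-treated controls, with both groups carrying the same transplanted tumor.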

[1] = dose: 50.0 mg/kg/injection, schedule: Q04DX003 (ip), vehicle: saline
[2] = dose: 100.0 mg/kg/injection, schedule: Q04DX003 (ip), vehicle: saline
[3] = dose: 100.0 mg/kg/injection, schedule: Q01DX009 (ip), vehicle: Klucel (hydroxypropylcellulose) (HPC)
[4] = dose: 100.0 mg/kg/injection, schedule: Q04DX003 (ip), vehicle: saline with Tween-80
[5] = dose: 200.0 mg/kg/injection, schedule: Q04DX003 (ip), vehicle: saline with Tween-80
[6] = dose: 400.0 mg/kg/injection, schedule: Q04DX003 (ip), vehicle: saline with Tween-80

Measured: T/C

C=CCOCC(O)CN(C)C1CCCCC1 (centres undefined)
inactive: dose: 25.0 mg/kg/injection, schedule: Q01DX009 (ip), vehicle: saline 97 % of control | dose: 25.0 mg/kg/injection, schedule: Q04DX003 (ip), vehicle: saline 106 % of control | dose: 50.0 mg/kg/injection, schedule: Q01DX009 (ip), vehicle: saline 98 % of control | [1] 103 % of control | dose: 100.0 mg/kg/injection, schedule: Q01DX009 (ip), vehicle: saline 95 % of control | [2] 100 % of control and 104 % of control

COc1ccc(/C=N/n2c3ccccc3c3ccccc32)cc1OCCCN(C)C
inactive: dose: 3.12 mg/kg/injection, schedule: Q01DX009 (ip), vehicle: saline 98 % of control | dose: 6.25 mg/kg/injection, schedule: Q01DX009 (ip), vehicle: saline 102 % of control | dose: 25.0 mg/kg/injection, schedule: Q04DX003 (ip), vehicle: alcohol 93 % of control | dose: 50.0 mg/kg/injection, schedule: Q04DX003 (ip), vehicle: alcohol 93 % of control

c1ccc2nc3c(cc2c1)[nH]c1ccccc13
inactive: dose: 100.0 mg/kg/injection, schedule: Q04DX002 (ip), vehicle: gum acacia 92 % of control | dose: 200.0 mg/kg/injection, schedule: Q04DX002 (ip), vehicle: gum acacia 106 % of control | dose: 400.0 mg/kg/injection, schedule: Q04DX002 (ip), vehicle: gum acacia 103 % of control

COc1ccc(N=NS(=O)O)cc1
inactive: dose: 100.0 mg/kg/injection, schedule: Q01DX001 (ip), vehicle: Klucel (hydroxypropylcellulose) (HPC) 98 % of control | dose: 200.0 mg/kg/injection, schedule: Q01DX001 (ip), vehicle: Klucel (hydroxypropylcellulose) (HPC) 97 % of control | dose: 400.0 mg/kg/injection, schedule: Q01DX001 (ip), vehicle: Klucel (hydroxypropylcellulose) (HPC) 95 % of control

O=C(O)COc1ccc(OCC(=O)O)cc1
inactive: [3] 97 % of control | dose: 100.0 mg/kg/injection, schedule: Q04DX003 (ip), vehicle: Klucel (hydroxypropylcellulose) (HPC) 95 % of control | dose: 200.0 mg/kg/injection, schedule: Q01DX009 (ip), vehicle: Klucel (hydroxypropylcellulose) (HPC) 89 % of control | dose: 200.0 mg/kg/injection, schedule: Q04DX003 (ip), vehicle: Klucel (hydroxypropylcellulose) (HPC) 95 % of control | dose: 400.0 mg/kg/injection, schedule: Q01DX009 (ip), vehicle: Klucel (hydroxypropylcellulose) (HPC) 89 % of control | dose: 400.0 mg/kg/injection, schedule: Q04DX003 (ip), vehicle: Klucel (hydroxypropylcellulose) (HPC) 92 % of control

CN1CCN(c2nc3nnnn3c3ccccc23)CC1
inactive: [1] 101 % of control | [2] 104 % of control | dose: 200.0 mg/kg/injection, schedule: Q04DX003 (ip), vehicle: saline 101 % of control

CCNC(=S)S.[Zn+2]
inactive: dose: 1.0 mg/kg/injection, schedule: Q01DX015 (ip), vehicle: saline 102 % of control | dose: 2.0 mg/kg/injection, schedule: Q01DX015 (ip), vehicle: saline 100 % of control | dose: 4.0 mg/kg/injection, schedule: Q01DX015 (ip), vehicle: saline 102 % of control | dose: 8.0 mg/kg/injection, schedule: Q01DX015 (ip), vehicle: saline 108 % of control | dose: 10.0 mg/kg/injection, schedule: Q01DX001 (ip), vehicle: carboxymethylcellulose (CMC) 95 % of control | dose: 20.0 mg/kg/injection, schedule: Q01DX001 (ip), vehicle: carboxymethylcellulose (CMC) 97 % of control | dose: 40.0 mg/kg/injection, schedule: Q01DX001 (ip), vehicle: carboxymethylcellulose (CMC) 95 % of control | dose: 80.0 mg/kg/injection, schedule: Q01DX001 (ip), vehicle: carboxymethylcellulose (CMC) 97 % of control

CC1(C)CC(N=Cc2ccccc2O)CC(C)(C)N1O.CC1(C)CC(N=Cc2ccccc2O)CC(C)(C)N1O.[Co]
inactive: [4] 89 % of control | [5] 92 % of control

CC(=O)OC1CCC2(C)C(CCC3C4CC=C(C(C)=O)C4(C)CCC32)C1 (centres undefined)
inactive: dose: 100.0 mg/kg/injection, schedule: Q01DX009 (sc), vehicle: steriod suspending solution 94 % of control | dose: 100.0 mg/kg/injection, schedule: Q04DX003 (sc), vehicle: steriod suspending solution 115 % of control | dose: 200.0 mg/kg/injection, schedule: Q01DX009 (sc), vehicle: steriod suspending solution 109 % of control | dose: 200.0 mg/kg/injection, schedule: Q04DX003 (sc), vehicle: steriod suspending solution 103 % of control | dose: 400.0 mg/kg/injection, schedule: Q01DX009 (sc), vehicle: steriod suspending solution 98 % of control | dose: 400.0 mg/kg/injection, schedule: Q04DX003 (sc), vehicle: steriod suspending solution 105 % of control

Nc1ncnc(N)c1NC(=O)c1ccc(OCCCCOc2ccccc2)c(Cl)c1
inactive: [4] 101 % of control | [5] 102 % of control | [6] 96 % of control

O=C(OCC1OC(n2c(=O)[nH]c3scnc3c2=O)C(OC(=O)c2ccccc2)C1OC(=O)c1ccccc1)c1ccccc1 (centres undefined)
inactive: dose: 100.0 mg/kg/injection, schedule: Q01DX005 (ip), vehicle: saline 93 % of control | dose: 200.0 mg/kg/injection, schedule: Q01DX005 (ip), vehicle: saline 86 % of control

CC1=Nc2c(c(C(C)(C)C)c3nc(C)oc3c2C(C)(C)C)C1
inactive: dose: 100.0 mg/kg/injection, schedule: Q01DX001 (ip), vehicle: saline with Tween-80 97 % of control | dose: 200.0 mg/kg/injection, schedule: Q01DX001 (ip), vehicle: saline with Tween-80 94 % of control | dose: 400.0 mg/kg/injection, schedule: Q01DX001 (ip), vehicle: saline with Tween-80 94 % of control

O=c1[nH]cc(O)c(=O)[nH]1
inactive: dose: 50.0 mg/kg/injection, schedule: Q01DX001 (ip), vehicle: carboxymethylcellulose (CMC) 100 % of control | dose: 62.5 mg/kg/injection, schedule: Q#A X018 (ip), vehicle: saline 98 % of control | dose: 100.0 mg/kg/injection, schedule: Q01DX001 (ip), vehicle: carboxymethylcellulose (CMC) 102 % of control | dose: 125.0 mg/kg/injection, schedule: Q#A X018 (ip), vehicle: saline 104 % of control | dose: 176.0 mg/kg/injection, schedule: Q01DX Z (ip), vehicle: carboxymethylcellulose (CMC) 107 % of control | dose: 200.0 mg/kg/injection, schedule: Q01DX001 (ip), vehicle: carboxymethylcellulose (CMC) 107 % of control | dose: 250.0 mg/kg/injection, schedule: Q#A X018 (ip), vehicle: saline 115 % of control | dose: 267.0 mg/kg/injection, schedule: Q01DX015 (ip), vehicle: saline 115 % of control | dose: 267.0 mg/kg/injection, schedule: Q01DX Z (ip), vehicle: carboxymethylcellulose (CMC) 120 % of control | dose: 400.0 mg/kg/injection, schedule: Q01DX001 (ip), vehicle: carboxymethylcellulose (CMC) 100 % of control | dose: 400.0 mg/kg/injection, schedule: Q01DX015 (ip), vehicle: saline 120 % of control | dose: 600.0 mg/kg/injection, schedule: Q01DX015 (ip), vehicle: saline 119 % of control

Cc1cc(C)c(C[N+](C)(C)C)c(C)c1C
inactive: dose: 50.0 mg/kg/injection, schedule: Q01DX001 (ip), vehicle: saline 102 % of control

CC(=O)c1ccc(CCCC2CCCC2)cc1
inactive: dose: 100.0 mg/kg/injection, schedule: Q04DX002 (ip), vehicle: Klucel (hydroxypropylcellulose) (HPC) 88 % of control | dose: 200.0 mg/kg/injection, schedule: Q04DX002 (ip), vehicle: Klucel (hydroxypropylcellulose) (HPC) 91 % of control | dose: 400.0 mg/kg/injection, schedule: Q04DX002 (ip), vehicle: Klucel (hydroxypropylcellulose) (HPC) 91 % of control

Brc1n[nH]nc1Br
inactive: [4] 98 % of control | [5] 104 % of control | [6] 101 % of control

CCC(=O)Oc1ccccc1C(=O)O
inactive: dose: 25.0 mg/kg/injection, schedule: Q01DX009 (ip), vehicle: Klucel (hydroxypropylcellulose) (HPC) 98 % of control | dose: 50.0 mg/kg/injection, schedule: Q01DX009 (ip), vehicle: Klucel (hydroxypropylcellulose) (HPC) 98 % of control | [3] 103 % of control

O=C(O)/C=C/Sc1ccc(Cl)cc1
inactive: dose: 50.0 mg/kg/injection, schedule: Q01DX009 (ip), vehicle: saline with Tween-80 94 % of control | dose: 100.0 mg/kg/injection, schedule: Q01DX009 (ip), vehicle: saline with Tween-80 94 % of control | dose: 100.0 mg/kg/injection, schedule: Q04DX002 (ip), vehicle: saline with Tween-80 95 % of control | dose: 200.0 mg/kg/injection, schedule: Q01DX009 (ip), vehicle: saline with Tween-80 94 % of control | dose: 200.0 mg/kg/injection, schedule: Q04DX002 (ip), vehicle: saline with Tween-80 92 % of control

O=C(Nc1ccc([N+](=O)[O-])cc1)c1cc(N2CCCC2)ccn1
inactive: dose: 100.0 mg/kg/injection, schedule: Q01DX001 (ip), vehicle: saline 100 % of control | dose: 200.0 mg/kg/injection, schedule: Q01DX001 (ip), vehicle: saline 96 % of control | dose: 400.0 mg/kg/injection, schedule: Q01DX001 (ip), vehicle: saline 100 % of control
